Legend:
[1] = molecular target: Polymerase acidic protein (Influenza A virus (A/Puerto Rico/8/1934(H1N1)), UniProt P03433); test: Inhibition of influenza A virus (A/PR/8/34) N-terminal PA endonuclease using 880 nucleotide ALMV cap1 primer RNA as substrate
[2] = Cytotoxicity against HEK293 cells assessed as reduction in cell viability by MTS assay; assay type: cell-based; conditions: human
[3] = Inhibition of recombinant influenza A virus A/X-31 N-terminal 6His tagged-PA endonuclease (1 to 217 residues) expressed in Escherichia coli BL21-CodonPlus cells after 2 hrs using single stranded circular DNA plasmid M13mp18 as substrate by ethidium bromide staining based agarose gel electrophoresis; set-up: species or system Influenza A virus (A/X-31(H3N2))
[4] = test system: Influenza A virus; test: Antiviral activity against influenza A virus (A/PR/8/34) infected in HEK293 cells after 24 hrs by firefly luciferase reporter gene based vRNP-reconstitution assay; assay type: functional, cell-based; conditions: A/Puerto Rico/8/1934(H1N1), HEK293, 24 h
[5] = Antiviral activity against influenza A virus (A/WSN/33 (H1N1)) infected in MDCK cells after 48 hrs by crystal violet staining based plaque reduction assay; assay type: functional, cell-based, Influenza A virus (A/WSN/1933(H1N1))
[6] = Cytotoxicity against MDCK cells assessed as reduction in cell viability after 48 hrs by WST-1 assay; assay type: cell-based, Canis lupus familiaris; conditions: dog
[7] = test system: Influenza A virus; test: Antiviral activity against influenza A virus (A/PR/8/34) infected in MDCK cells assessed as reduction in viral yield incubated for 30 mins prior to infection measured after 24 hrs by plaque reduction assay; assay type: functional, cell-based; conditions: A/Puerto Rico/8/1934(H1N1)
[8] = test system: Influenza A virus; test: Antiviral activity against influenza A virus; assay type: functional
[9] = Inhibition of recombinant influenza A virus A/X-31 N-terminal 6His tagged-PA endonuclease (1 to 217 residues) expressed in Escherichia coli BL21-CodonPlus cells after 1 hr using single stranded circular DNA plasmid M13mp18 as substrate by ethidium bromide staining based agarose gel electrophoresis; set-up: species or system Influenza A virus (A/X-31(H3N2))
[10] = Inhibition of influenza A virus N-terminal PA endonuclease
[11] = Cytotoxicity against MDCK cells by MTT assay; assay type: cell-based, Canis lupus familiaris; conditions: dog
[12] = Binding affinity to influenza A virus PA endonuclease by isothermal titration calorimetry
[13] = Antiviral activity against influenza A virus (A/HK/415742/09(H1N1)) infected in MDCK cells by plaque reduction assay; assay type: functional, cell-based, Influenza A virus (A/Hong Kong/415742/2009(H1N1))
[14] = Inhibition of recombinant influenza A virus A/X-31 N-terminal PA endonuclease (1 to 217 residues) after 2 hrs using single stranded circular DNA plasmid M13mp18 as substrate by ethidium bromide staining based agarose gel electrophoresis; set-up: species or system Influenza A virus (A/X-31(H3N2))
[15] = Cytotoxicity against HEK293 cells assessed as reduction in cell viability after 24 hrs by MTS assay; assay type: cell-based; conditions: human
[16] = test system: Influenza A virus; test: Antiviral activity against influenza A virus ((A/PR/8/34) infected in MDCK cells assessed as reduction in viral yield after 24 hrs by qRT-PCR assay; assay type: functional; conditions: A/Puerto Rico/8/1934(H1N1)
[17] = test system: Influenza A virus; test: Antiviral activity against influenza A virus infected in HEK293 cells after 24 hrs by firefly luciferase reporter gene based vRNP-reconstitution assay; assay type: functional, cell-based; conditions: HEK293, 24 h
[18] = Cytotoxicity against MDCK cells assessed as reduction in cell viability after 24 hrs by MTS assay; assay type: cell-based, Canis lupus familiaris; conditions: dog
[19] = test system: H5N1 subtype; test: Antiviral activity against influenza A virus H5N1 infected in MDCK cells assessed as reduction of virus-induced cytopathic effect after 48 hrs by CellTiter-Glo luminescent assay; assay type: functional, cell-based
[20] = test system: Influenza A virus; test: Antiviral activity against influenza A virus H1N1 infected in MDCK cells assessed as reduction of virus-induced cytopathic effect after 48 hrs by CellTiter-Glo luminescent assay; assay type: functional, cell-based
[21] = test system: Influenza B virus; test: Antiviral activity against influenza B virus infected in MDCK cells assessed as reduction of virus-induced cytopathic effect after 48 hrs by CellTiter-Glo luminescent assay; assay type: functional, cell-based
[22] = test system: Influenza A virus (H1N1); test: Antiviral activity against influenza A virus H1N1-pdm09 infected in MDCK cells assessed as reduction of virus-induced cytopathic effect after 48 hrs by CellTiter-Glo luminescent assay; assay type: functional, cell-based
[23] = test system: Influenza A virus H3N2; test: Antiviral activity against influenza A virus H3N2 infected in MDCK cells assessed as reduction of virus-induced cytopathic effect after 48 hrs by CellTiter-Glo luminescent assay; assay type: functional, cell-based
[24] = Antiviral activity against influenza A virus H9N2 infected in MDCK cells assessed as reduction of virus-induced cytopathic effect after 48 hrs by CellTiter-Glo luminescent assay; assay type: functional, cell-based, H9N2 subtype
[25] = Cytotoxicity against MDCK cells assessed as reduction in cell viability after 48 hrs in presence of 5 % serum by CellTiter-Glo luminescent assay; assay type: cell-based, Canis lupus familiaris; conditions: dog
[26] = Cytotoxicity against MDCK cells assessed as reduction in cell viability after 48 hrs in serum free conditions by CellTiter-Glo luminescent assay; assay type: cell-based, Canis lupus familiaris; conditions: dog
[27] = Antiviral activity against influenza A virus H7N9 infected in MDCK cells assessed as reduction of virus-induced cytopathic effect after 48 hrs by CellTiter-Glo luminescent assay; assay type: functional, cell-based, H7N9 subtype
[28] = Antiviral activity against influenza A virus (A/Sydney/5/97) infected in MDCK cells after 2 to 3 days by crystal violet staining based plaque reduction assay; assay type: functional, cell-based, Influenza A virus (A/Sydney/5/1997(H3N2))
[29] = Cytotoxicity against MDCK cells after 48 hrs by MTT assay; assay type: cell-based, Canis lupus familiaris; conditions: dog
[30] = test system: Influenza B virus; test: Antiviral activity against influenza B virus (B/Yamagata/16/88) infected in MDCK cells after 2 to 3 days by crystal violet staining based plaque reduction assay; assay type: functional, cell-based; conditions: B/Yamagata/16/1988, MDCK
[31] = Antiviral activity against influenza A virus (A/Chile/1/83) infected in MDCK cells after 2 to 3 days by crystal violet staining based plaque reduction assay; assay type: functional, cell-based, Influenza A virus (A/Chile/1/1983(H1N1))

**Q.** For `CC(C)/C=C1\N=C(CC(C)C)C(=O)N(O)C1=O`, which IC50 [1] is on record?
**A.** 5.1 to 5.5 µM

**Q.** Which CC50 [2] does the source give for `NC(=S)N/N=C/c1cccc(O)c1O` here?
**A.** > 200 µM

**Q.** And the IC50 [3]?
**A.** 37 µM

**Q.** And the EC50 [4]?
**A.** 63 µM

**Q.** With `OC(CN1CCCCC1)Cn1c2c(c3ccccc31)CCCC2` (stereo unspecified) as the molecule, how does the EC50 [5] read?
**A.** 36.5 µM

**Q.** What about the CC50 at 48 h [6] of the same molecule?
**A.** > 200 µM

**Q.** With `O=C(O)/C(O)=C/C(=O)C1(Cc2ccc(Cl)cc2)CCN(CC2CCCCC2)CC1` as the molecule, how does the EC50 [7] read?
**A.** 0.18 to 0.71 µM

**Q.** For `CC(=O)Nc1cccc(-c2nc(C(=O)O)c(O)c(=O)[nH]2)c1`, which EC50 [8] is on record?
**A.** > 50 µM

**Q.** Which EC50 [8] does the source give for `Cn1cnc(-c2nc(C(=O)O)c(O)c(=O)[nH]2)c1` here?
**A.** > 50 µM

**Q.** With `O=C(O)/C(O)=C/C(=O)C1(Cc2ccc(Cl)cc2)CCN(Cc2ccc(Cl)cc2)CC1` as the molecule, how does the EC50 [7] read?
**A.** 0.18 to 0.71 µM

**Q.** Which EC50 [7] does the source give for `O=C(O)/C(O)=C/C(=O)C1(Cc2ccc(Cl)cc2)CCCN(Cc2ccccc2)C1` (stereo unspecified) here?
**A.** 0.18 to 0.71 µM

**Q.** For `O=C(O)/C(O)=C/C(=O)C1(Cc2ccc(Cl)cc2)CCCN(S(=O)(=O)Cc2ccccc2)C1` (stereo unspecified), which EC50 [7] is on record?
**A.** 0.18 to 0.71 µM

**Q.** Which IC50 [9] does the source give for `O=C(NCc1ccc(F)cc1)c1cccc(O)c1O` here?
**A.** 33 µM

**Q.** For `O=c1[nH]cc(Br)cc1O`, which IC50 [10] is on record?
**A.** 16 µM

**Q.** Which CC50 [11] does the source give for `CN(C)c1ccc(/C=C2\C/C(=N\N=C3\C(=O)Nc4ccccc43)NC2=O)cc1` here?
**A.** > 300 µM

**Q.** What about the Kd [12] of the same molecule?
**A.** 1.3 µM

**Q.** And the EC50 [13]?
**A.** 1.5 µM

**Q.** What does the source list for `O=C(N/N=C/c1cc(O)c(O)c(O)c1)c1cc(O)c(O)c(O)c1`?
**A.** IC50 [14]: 8.7 µM; CC50 at 24 h [15]: > 200 µM; EC90 [16]: 3.5 µM; EC50 [17]: 3.1 µM; CC50 at 24 h [18]: > 200 µM

**Q.** Which CC50 [11] does the source give for `O=C1Nc2ccccc2/C1=N\N=C1/C/C(=C2\C(=O)Nc3ccccc32)C(=O)N1` here?
**A.** > 400 µM

**Q.** And the Kd [12]?
**A.** 1.1 µM

**Q.** And the EC50 [13]?
**A.** 0.8 µM

**Q.** Which CC50 [2] does the source give for `NC(=O)N/N=C/c1cccc(O)c1O` here?
**A.** > 200 µM

**Q.** And the IC50 [3]?
**A.** 24 µM

**Q.** What about the EC50 [4] of the same molecule?
**A.** 107 µM

**Q.** With `C[C@@H](N1CN([C@H]2c3ccccc3CSc3ccccc32)n2ccc(=O)c(O)c2C1=O)C(F)(F)F` as the molecule, how does the EC50 [19] read?
**A.** 0.0139 µM

**Q.** What about the EC50 [20] of the same molecule?
**A.** 0.0083 µM

**Q.** And the EC50 [21]?
**A.** 0.0128 µM

**Q.** And the EC50 [22]?
**A.** 0.007 µM

**Q.** And the EC50 [23]?
**A.** 0.0085 µM

**Q.** What about the EC50 [24] of the same molecule?
**A.** 0.0122 µM

**Q.** And the CC50 at 48 h [25]?
**A.** 86.2 µM

**Q.** And the CC50 at 48 h [26]?
**A.** 11.9 µM

**Q.** And the EC50 [27]?
**A.** 0.0154 µM

**Q.** With `O=C(O)/C(O)=C/C(=O)c1cccn1Cc1ccc(F)cc1` as the molecule, how does the IC50 [3] read?
**A.** 0.8 µM

**Q.** With `O=C(O[C@@H]1Cc2c(O)cc(O)cc2O[C@@H]1c1ccc(O)c(O)c1)c1cc(O)c(O)c(O)c1` [EPICATECHIN GALLATE] as the molecule, how does the EC50 [28] read?
**A.** 22.2 µM

**Q.** What about the CC50 at 48 h [29] of the same molecule?
**A.** 526 µM

**Q.** And the EC50 [30]?
**A.** 40.4 µM

**Q.** And the EC50 [31]?
**A.** 26.4 µM

**Q.** With `O=C(O[C@@H]1Cc2c(O)cc(O)cc2O[C@@H]1c1cc(O)c(O)c(O)c1)c1cc(O)c(O)c(O)c1` [EPIGALOCATECHIN GALLATE] as the molecule, how does the EC50 [28] read?
**A.** 22.8 µM

**Q.** And the CC50 at 48 h [29]?
**A.** 275 µM

**Q.** And the EC50 [30]?
**A.** 26.1 µM

**Q.** What about the EC50 [31] of the same molecule?
**A.** 28.4 µM

— ChEMBL document CHEMBL4007398, “Inhibitors of Influenza Virus Polymerase Acidic (PA) Endonuclease: Contemporary Developments and Perspectives” (J Med Chem, 2017)
